According to ChEMBL document CHEMBL4680278 (J Med Chem, 2020):

How the values were obtained:
[1] = Cmax in human plasma at 3.5 +/- 5.5 mg, INH; assay type: ADME, cell-free; design: dose 3.5 mg; conditions: inhaled or intranasal, 3.5 mg
Cytochrome P450 1A1 = biological target: T1, Cytochrome P450 1A1 (Homo sapiens, UniProt P04798); assay: Competitive inhibition of human recombinant CYP1A1 using 7-Ethoxyresorufin as substrate by Lineweaver-Burk plot analysis; assay type: ADME; conditions: read-out: Ki(app)
T1 sequence (P04798 whole entry): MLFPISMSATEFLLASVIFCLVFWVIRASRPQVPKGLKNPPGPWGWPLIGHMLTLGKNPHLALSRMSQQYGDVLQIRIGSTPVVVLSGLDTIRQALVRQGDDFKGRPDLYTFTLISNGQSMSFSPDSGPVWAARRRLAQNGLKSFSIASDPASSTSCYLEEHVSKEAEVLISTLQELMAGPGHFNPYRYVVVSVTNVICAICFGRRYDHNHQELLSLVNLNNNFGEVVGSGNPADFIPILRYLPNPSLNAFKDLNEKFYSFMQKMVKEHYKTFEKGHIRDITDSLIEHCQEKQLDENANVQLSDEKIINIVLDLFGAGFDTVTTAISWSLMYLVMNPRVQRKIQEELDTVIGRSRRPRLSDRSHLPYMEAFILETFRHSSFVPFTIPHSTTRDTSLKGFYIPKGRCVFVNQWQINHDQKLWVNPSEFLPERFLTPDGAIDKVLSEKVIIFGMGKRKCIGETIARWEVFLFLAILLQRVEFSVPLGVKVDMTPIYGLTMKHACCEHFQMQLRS

Cytochrome P450 1B1 = biological target: T2, Cytochrome P450 1B1 (Homo sapiens, UniProt Q16678); assay: Competitive inhibition of human recombinant CYP1B1 using 7-Ethoxyresorufin as substrate by Lineweaver-Burk plot analysis; assay type: ADME; conditions: read-out: Ki(app)
T2 sequence (Q16678 whole entry): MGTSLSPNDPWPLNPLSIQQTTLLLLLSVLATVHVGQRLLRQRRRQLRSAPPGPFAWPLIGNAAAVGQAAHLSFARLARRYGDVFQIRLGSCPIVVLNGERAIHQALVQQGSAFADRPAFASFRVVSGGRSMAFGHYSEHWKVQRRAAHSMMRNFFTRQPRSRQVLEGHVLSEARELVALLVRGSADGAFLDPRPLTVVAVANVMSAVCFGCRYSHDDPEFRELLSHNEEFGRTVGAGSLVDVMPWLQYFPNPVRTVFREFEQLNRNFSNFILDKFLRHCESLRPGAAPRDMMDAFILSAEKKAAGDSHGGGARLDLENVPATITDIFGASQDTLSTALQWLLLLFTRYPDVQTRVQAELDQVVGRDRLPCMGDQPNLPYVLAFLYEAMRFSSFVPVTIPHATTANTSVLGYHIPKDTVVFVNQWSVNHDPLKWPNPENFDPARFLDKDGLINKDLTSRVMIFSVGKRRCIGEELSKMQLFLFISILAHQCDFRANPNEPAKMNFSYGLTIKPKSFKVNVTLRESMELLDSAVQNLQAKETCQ

[2] = biological target: T3, Steroid 17-alpha-hydroxylase/17,20 lyase (Rattus norvegicus, UniProt P11715); assay: Mixed type inhibition of CYP17 in Sprague-Dawley rat testis microsomes assessed as reduction in 17alpha-Hydroxylase activity in presence of NADPH-generating system incubated for 2 mins by Lineweaver-Burk plot analysis; assay type: ADME
T3 sequence (P11715 whole entry): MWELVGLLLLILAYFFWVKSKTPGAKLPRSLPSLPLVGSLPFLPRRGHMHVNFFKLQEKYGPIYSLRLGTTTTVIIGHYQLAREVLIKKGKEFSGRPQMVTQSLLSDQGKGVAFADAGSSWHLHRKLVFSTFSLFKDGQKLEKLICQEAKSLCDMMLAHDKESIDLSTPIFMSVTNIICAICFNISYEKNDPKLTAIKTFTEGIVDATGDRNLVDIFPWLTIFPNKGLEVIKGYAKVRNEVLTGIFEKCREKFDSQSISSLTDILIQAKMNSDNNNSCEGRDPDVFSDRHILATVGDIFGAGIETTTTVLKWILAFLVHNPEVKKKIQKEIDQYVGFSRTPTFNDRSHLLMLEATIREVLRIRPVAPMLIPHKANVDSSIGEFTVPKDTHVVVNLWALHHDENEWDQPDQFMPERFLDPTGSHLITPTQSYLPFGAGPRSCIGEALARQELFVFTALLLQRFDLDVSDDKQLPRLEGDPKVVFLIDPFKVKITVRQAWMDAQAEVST

With `C=C(C)[C@@H]1CCC(C)=C[C@H]1c1c(O)cc(CCCCC)cc1O` [CANNABIDIOL] the Cmax [1] was 11.1 nM, the Ki (Cytochrome P450 1A1) was 0.16 µM and the Ki (Cytochrome P450 1B1) was 3.63 µM. The Ki [2] was 124 µM.
